Measured values reported in patent publication US10047068B2, “Optical resolution method of lenalidomide” (Shiseido Company, Ltd, priority 2014, dated 2018).

Columns and labels:
[1] = Stability of lenalidomide in different solvents; assay type: physicochemical; conditions: 0.5 mg/mL racemic mixture, room temperature or 50° C., 24 hours
[2] = Dependence of racemization half-life on pH in aqueous buffers at room temperature; assay type: physicochemical
Method: In order to elucidate the racemization half-life of lenalidomide and its pH dependence, an experiment was conducted with the following scheme and HPLC conditions.
The enantiomeric excess rate (EE, [(S−R)/(S+R)×100], %) at each point is plotted in FIG. 7, and the log10 (EE) vs. time plot is shown in FIG. 8.
This linearity was used to calculate the time for EE=50 based on a straight line approximation (y=ax+b), to determine the racemization half-life. The stability of the pure enantiomer is very highly dependent on pH, the half-life being 10 times longer for every pH reduction of 1, and estimation of the half-life was no longer possible at pH 4. At pH 9, on the other hand, sudden racemization and decomposition were observed.

[3] = NPL 11; cited from earlier work
[4] = Racemization half-life in human serum (37° C.); conditions: for racemization half-life in serum, times longer than the corresponding TD enantiomer: human serum, 37° C.
Description: The analysis method of the invention is shown as scheme (b). The acid used to suspend the reaction while simultaneously precipitating and removing the protein was HClO4.

[5] = Na-phosphate buffer pH 7.4, 37° C., average of 3 tests ± SD

## Nc1cccc2c1CN(C1CCC(=O)NC1=O)C2=O (racemic) [lenalidomide, Lenalidomide]
[1]; acetonitrile
  stability in solvent (enantiomer peak areas before and after incubation): no decomposition was observed
[1]; ethanol
  stability in solvent (enantiomer peak areas before and after incubation): highly unstable
[1]; ethyl acetate
  stability in solvent (enantiomer peak areas before and after incubation): no decomposition was observed
[1]; isopropanol
  stability in solvent (enantiomer peak areas before and after incubation): stable
[1]; methanol
  stability in solvent (enantiomer peak areas before and after incubation): highly unstable
[2]; pH 9 and 8, room temperature
  racemization and decomposition in aqueous buffer (peak areas): racemization and decomposition of LL takes place

## O=C1CCC(N2C(=O)c3ccccc3C2=O)C(=O)N1 (racemic) [thalidomide]
[3]
  excretion half-life: 8.7 h

## Nc1cccc2c1CN(C1CCC(=O)NC1=O)C2=O (single isomer, unassigned) [(S*)-LL]
[4]
  racemization half-life in serum, times longer than the corresponding TD enantiomer: 6 times
  racemization half-life in human serum: 2.18 ± 0.0817 h
[5]
  racemization half-life in aqueous buffer: 4.53 ± 0.0217 h
[2]; pH 6, room temperature
  racemization on incubation in aqueous buffer: small amount of (R*)-LL was produced
[2]; pH 7 and higher, room temperature
  racemization on incubation in aqueous buffer: racemization was significantly accelerated

## Nc1cccc2c1CN(C1CCC(=O)NC1=O)C2=O (single isomer, unassigned) [(R*)-LL]
[4]
  racemization half-life in serum, times longer than the corresponding TD enantiomer: 3 times
  racemization half-life in human serum: 1.82 ± 0.0333 h
[5]
  racemization half-life in aqueous buffer: 4.45 ± 0.0183 h
